From patent US20090253629A1 (priority 2008, published 2009)
In brackets after ≈: the same amount, converted by molar mass. Several values for one entry are separate records, joined by “and”; a condition that tells them apart may be missing. Identical values can stand only once. Like-named read-outs stand apart in the source and are kept apart here.

Experiments:
[1] = test system: Streptococcus pneumoniae (1395); assay: Minimum inhibitory concentration (MIC) against Streptococcus pneumoniae (1395); type: cell-based; conditions: penicillin-resistant serotype 9V, read-out: minimium inhibitory concentration (MIC)
Source text: (§1) An Isolate of a penicillin-resistant serotype 9V Streptococcus pneumoniae (1395), originally isolated from the CSF of a person with meningitis, was used in the meningitis model. This strain was formerly used for evaluating the effectiveness of treatment of meningitis with Moxifloxacin (see Ostergaard et al., 1998, “Evaluation of moxifloxacin, a new 8-methoxyquinolone, for treatment of meningitis caused by a penicillin-resistant pneumococcus in rabbits”, Antimicrob Agents Chemother 42(7): 1706-1712).
The synthetic defensin used in the experiment is a polypeptide having the amino acid sequence shown in SEQ ID NO: 1.

[2] = test system: penicillin-resistant serotype 9V Streptococcus pneumoniae (1395); type: in vivo, New Zealand white rabbits; conditions: for reduction in bacterial burden in the cerebrospinal fluid (Δ log CFU), Average / reduction in bacterial burden in the cerebrospinal fluid (Δ log CFU): Ceftriaxon treatment; for reduction in bacterial burden in the cerebrospinal fluid (Δ log CFU), Average: average of rabbits 7-10; for reduction in bacterial burden in the cerebrospinal fluid (Δ log CFU): individual rabbits 7-10
Source text: as §1
The virulence of the strain was enhanced by passing the bacteria through a mouse peritonitis model. Bacteria from sampled peritoneal fluid were grown on blood agar plates, recovered and diluted in beef-broth with 10% glycerol added and frozen at −80° C.
The bacterial aliquots were thawn and grown on blood-agar plates, suspended in sterile beef-broth to reach an optical density of 3.5 at 540 nm, and subsequently diluted to obtain a final concentration of 1-2×10^6 CFU/ml.
Male New Zealand white rabbits weighing approx. 2500 g was used for the experiments. The rabbits arrived at the facilities 1-2 weeks prior to the experiment to allow for adaptation. They were kept in single cages covered with hay and offered food and water with no restrictions. Veterinarian expertise was available at the laboratory, and the experimental design was approved by the local animal legislation committee.
The rabbit was weighed and anaesthetized with dormicum 0.5 ml/kg (midazolam 5 mg/ml) s.c. and after 10 minutes with hypnorm 0.35 ml/kg (fentanylcitrat+fluanison) i.m.
The ears, scalp and neck of the rabbit were shaved and the skin disinfected. An incision measuring approx. 2 cm was made on the forehead of the rabbit and the scalp was exposed by blunt dissection. 4 bore holes were made demarcating a square and 4 screws were screwed up at right angles to the surface (2.5 to 3 turns). An acrylic helmet, embedding a turnbuckle, was moulded from dental casting material directly onto the scalp of the rabbit and the helmet was cooled under running water. The rabbit was put back into its cage with free access to food and water to rest for 8-10 hours until the time of bacterial inoculation or start of pharmacokinetic treatment study on uninfected rabbits. Analgesia with buprenorfin, 0.1 mg/kg, was given.
The head of the rabbit was immobilised in a stereotactic frame and a spinal canula was introduced in cisterna magna for the inoculation of 1×10^5 CFU pneumococci. After the bacterial inoculation, the rabbit was put back into its cage with access to food and water for another 8 hours.
The rabbit was re-anaesthetized with urethan 3.5 ml/kg ([…] 50%, 1.75 g/kg) s.c. at 7.30 a.m. A venous catheter was applied in the left ear-vein and Mebumal approx. 0.5-1 ml (Pentobarbital 50 mg/ml) i.v. was infused slowly until the rabbit was asleep and deeply anaesthetized. A three-way tap was connected to the venous catheter and syringes containing pentobarbital for supplemental anaesthetics and isotonic NaCl and heparin 1 Ul/ml for flushing were connected to the tap. Rabbits were observed every half hour. When the need for supplemental anaesthesia arose, additional 0.2 ml Mebumal (Pentobarbital 50 mg/ml) was given. During the experiment observations and anaesthetics were recorded in the scheme of the laboratory animal-department and in the book of the Laboratory Animal Inspection.
An arterial canula was applied in the artery of the right ear and used for blood-sampling throughout the experiment. A bolt was fastened to the turnbuckle embedded in the acrylic helmet, and the rabbit's head was fixed in a stereotactic frame. The rabbit remained fixed throughout the experiment.
Cisterna magna was punctured with a spinal-canula, fastened to the stereotactic frame. The canula was left in place throughout the experiment and used for CSF-sampling.

[3] = time 0 hours (normalized start)

Question: How did the MIC [1] turn out when `CO/N=C(\C(=O)N[C@@H]1C(=O)N2C(C(=O)O)=C(CSc3nc(=O)c(=O)[nH]n3C)CS[C@H]12)c1csc(N)n1` [Ceftriaxone] was run?
Answer: 0.5 µg/mL (≈ 0.902 µM)

Question: What about the “reduction in bacterial burden in the cerebrospinal fluid (Δ log CFU), Average” value (from here on “reduction … (Δ log CFU), Average”) [2, 3] of the same compound?
Answer: 0.00 Δ log CFU

Question: And the “reduction in bacterial burden in the cerebrospinal fluid (Δ log CFU)” value [2, 3]?
Answer: 0.00 Δ log CFU

Question: And the “bacterial burden in the cerebrospinal fluid” value ([2]; time 0 hours (start of treatment), Ceftriaxone 125 mg/kg at 0 h)?
Answer: 3,480,000 CFU/ml

Question: What about the “reduction … (Δ log CFU), Average” value ([2]; time 3 hours) of the same compound?
Answer: −2.12 Δ log CFU

Question: What about the “reduction in bacterial burden in the cerebrospinal fluid (Δ log CFU)” value ([2]; time 3 hours) of the same compound?
Answer: −2.26 Δ log CFU and −2.11 Δ log CFU and −2.53 Δ log CFU and −1.58 Δ log CFU

Question: What about the “bacterial burden in the cerebrospinal fluid” value ([2]; time 3 hours, Ceftriaxone 125 mg/kg at 0 h) of the same compound?
Answer: 92,500 CFU/ml

Question: What about the “reduction … (Δ log CFU), Average” value ([2]; time 5 hours) of the same compound?
Answer: −2.98 Δ log CFU

Question: What about the “reduction in bacterial burden in the cerebrospinal fluid (Δ log CFU)” value ([2]; time 5 hours) of the same compound?
Answer: −3.28 Δ log CFU and −2.77 Δ log CFU and −3.72 Δ log CFU and −2.14 Δ log CFU

Question: What about the “bacterial burden in the cerebrospinal fluid” value ([2]; time 5 hours, Ceftriaxone 125 mg/kg at 0 h) of the same compound?
Answer: 25,000 CFU/ml

Question: What about the “reduction … (Δ log CFU), Average” value ([2]; time 10 hours) of the same compound?
Answer: −4.18 Δ log CFU

Question: What about the “reduction in bacterial burden in the cerebrospinal fluid (Δ log CFU)” value ([2]; time 10 hours) of the same compound?
Answer: −5.16 Δ log CFU and −3.57 Δ log CFU and −4.32 Δ log CFU and −3.67 Δ log CFU

Question: And the “bacterial burden in the cerebrospinal fluid” value ([2]; time 10 hours, Ceftriaxone 125 mg/kg at 0 h)?
Answer: 750 CFU/ml

Question: And the “bacterial burden in the cerebrospinal fluid” value ([2]; time −10 hours (before treatment), Ceftriaxone group)?
Answer: 240,000 CFU/ml
